Assay results taken from the supplement of paper PMC10307832.

Experiments:
Experiment in all cases: relative viability (nuclei count vs DMSO), 5 days (fraction); higher = more cells survive
Afatinib + Trametinib = compound: CN(C)C/C=C/C(=O)Nc1cc2c(Nc3ccc(F)c(Cl)c3)ncnc2cc1O[C@H]1CCOC1 [Afatinib] + CC(=O)Nc1cccc(-n2c(=O)n(C3CC3)c(=O)c3c(Nc4ccc(I)cc4F)n(C)c(=O)c(C)c32)c1 [Trametinib] (partner 0.02 µM)
Summary of the method: (§1)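 Lung cancer cell lines were pin-tool dosed in 1536-well plates on the day after seeding, with either a lone drug or a fixed anchor-drug dose plus five library-drug doses (not always all listed) in √10 steps. Nuclei were counted on 4× images after 5 days. Relative viability is the ratio of treated-well to vehicle-well nuclei counts, with each value a median of duplicate plates.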

Afatinib + Bortezomib = compound: CN(C)C/C=C/C(=O)Nc1cc2c(Nc3ccc(F)c(Cl)c3)ncnc2cc1O[C@H]1CCOC1 [Afatinib] + CC(C)C[C@H](NC(=O)[C@H](Cc1ccccc1)NC(=O)c1cnccn1)B(O)O [Bortezomib] (partner 0.002 µM)
Summary of the method: as §1

Afatinib + Pictilisib = compound: CN(C)C/C=C/C(=O)Nc1cc2c(Nc3ccc(F)c(Cl)c3)ncnc2cc1O[C@H]1CCOC1 [Afatinib] + CS(=O)(=O)N1CCN(Cc2cc3nc(-c4cccc5[nH]ncc45)nc(N4CCOCC4)c3s2)CC1 [Pictilisib] (partner 1 µM)
Summary of the method: as §1

Afatinib + Olaparib = compound: CN(C)C/C=C/C(=O)Nc1cc2c(Nc3ccc(F)c(Cl)c3)ncnc2cc1O[C@H]1CCOC1 [Afatinib] + O=C(c1cc(Cc2n[nH]c(=O)c3ccccc23)ccc1F)N1CCN(C(=O)C2CC2)CC1 [Olaparib] (partner 8 µM)
Summary of the method: as §1

Cell Line	relative viability (Afatinib + Trametinib; first compound 0.005 µM)	relative viability (Afatinib + Trametinib; first compound 0.01581 µM)	relative viability (Afatinib + Trametinib; first compound 0.05 µM)	relative viability (Afatinib + Trametinib; first compound 0.1581 µM)	relative viability (Afatinib + Trametinib; first compound 0.5 µM)	relative viability (Afatinib + Bortezomib; first compound 0.005 µM)	relative viability (Afatinib + Bortezomib; first compound 0.01581 µM)	relative viability (Afatinib + Bortezomib; first compound 0.05 µM)	relative viability (Afatinib + Bortezomib; first compound 0.1581 µM)	relative viability (Afatinib + Bortezomib; first compound 0.5 µM)	relative viability (Afatinib + Pictilisib; first compound 0.005 µM)	relative viability (Afatinib + Pictilisib; first compound 0.01581 µM)	relative viability (Afatinib + Pictilisib; first compound 0.05 µM)	relative viability (Afatinib + Pictilisib; first compound 0.1581 µM)	relative viability (Afatinib + Pictilisib; first compound 0.5 µM)	relative viability (Afatinib + Olaparib; first compound 0.005 µM)	relative viability (Afatinib + Olaparib; first compound 0.01581 µM)	relative viability (Afatinib + Olaparib; first compound 0.05 µM)	relative viability (Afatinib + Olaparib; first compound 0.1581 µM)	relative viability (Afatinib + Olaparib; first compound 0.5 µM)
NCI-H2087	0.223	0.147	0.183	0.117	0.15	1.02	0.756	0.867	0.8	0.795	1.12	0.907	0.86	0.904	0.72	0.511	0.669	0.609	0.525	0.593
NCI-H2126	0.529	0.585	0.493	0.462	0.459	1.11	1.04	1.01	0.984	0.852	0.487	0.447	0.36	0.436	0.37	0.934	0.881	0.85	0.645	0.665
NCI-H2228	0.833	0.395	0.544	0.467	0.466	1.19	0.812	0.984		0.901	0.343	0.45	0.381		0.279	0.935	0.518	0.704	0.506	0.579
NCI-H2347	0.27	0.292	0.277	0.275	0.283	1.06	0.919	0.81	0.865	0.728	0.737	0.665	0.672	0.596	0.841	0.571	0.699	0.595	0.566	0.578
NCI-H2405	0.597	0.482	0.529	0.537	0.594	1	0.953	0.975	0.931	1.01	0.445	0.47	0.611	0.473	0.57	0.885	0.934	0.864	0.874	0.852
NCI-H3122	0.186	0.192	0.224	0.248	0.223	1.05	1.02	1.06	0.967	1.04	0.558	0.628	0.663	0.557	0.621	0.619	0.628	0.57	0.632	0.68
PC-3 [JPC-3]	0.441	0.4	0.443	0.285	0.438	0.516	0.351	0.315	0.406	0.303	0.429	0.323	0.339	0.3	0.355	0.608	0.453	0.472	0.456	0.476
PC-14	0.101	0.103	0.117	0.0763	0.0964	0.303	0.256	0.268	0.222	0.249	0.109	0.0863	0.108	0.0958	0.0837	0.193	0.19	0.139	0.12	0.134
RERF-LC-KJ	0.852	0.806	0.723	0.684	0.674	1.01	1.16	0.901	0.818	0.793	0.543	0.507	0.414	0.35	0.392	0.851	0.86	0.906	0.865	0.828
SK-LU-1	0.504	0.405	0.604	0.526	0.483	1.07	1.28	1.33	1.28	1.09	0.713	0.537	0.561	0.564	0.531	0.49	0.447	0.414	0.492	0.452
SW 1573	0.524	0.551	0.616	0.526	0.53	1.12	1.07	1.05	0.98	1.1	0.547	0.406	0.585	0.484	0.484	0.624	0.485	0.486	0.421	0.408
UMC-11	0.73	0.732	0.667	0.7	0.908	0.998	0.735	0.667	0.669	0.777	0.981	0.841	0.787	0.725	0.84	0.386	0.402	0.405	0.368	0.394
